Where two headings read alike, the source gives them in different places.
Legend:
Format in all cases: biochemical
[1] = tested on: α-isomaltosyl-transferring enzyme from Bacillus globisporus C11; assay: Influence of metal ions on enzyme activity; details: enzyme of Strain C11; for Relative activity: 1 mM metal ion; for Effect on enzyme activity: 1 mM
Description: (§1) The activity of the enzyme was assayed by dissolving panose in 100 mM acetate buffer (pH 6.0) to give a concentration of two percent (w/v) for a substrate solution, adding a 0.5 ml of an enzyme solution to a 0.5 ml of the substrate solution, enzymatically reacting the mixture solution at 35° C. for 30 min, suspending the reaction mixture by boiling for 10 min, and quantifying glucose by the glucose oxidation method. One unit activity of the α-isomaltosyl-transferring enzyme is defined as the enzyme amount that forms one micromole of glucose per minute under the above enzymatic reaction conditions. Throughout the specification, the enzymatic activity of the α-isomaltosyl-transferring enzyme means the unit(s) assayed as above.
(§2) The influence of metal ions on the activity of α-isomaltosyl-transferring enzyme was examined in the presence of 1 mM of a metal ion according to the assay for the enzyme activity.

[2] = tested on: α-isomaltosyl-transferring enzyme from Arthrobacter ramosus S1; assay: Influence of metal ions on enzyme activity; details: enzyme of Strain S1; for Relative activity: 1 mM metal ion; for Effect on enzyme activity: 1 mM
Description: as §1, §2

[3] = tested on: α-isomaltosyl-transferring enzyme from Bacillus globisporus N75
Description: as §1, §2

[4] = tested on: α-isomaltosyl-transferring enzyme from Bacillus globisporus C9; assay: Influence of metal ions on enzyme activity; details: enzyme of Strain C9; for Relative activity: 1 mM metal ion; for Effect on enzyme activity: 1 mM
Description: as §1
The influence of metal ions on the activity of α-isomaltosyl-transferring enzyme was examined in the presence of 1 mM of each metal-ion according to the assay for the enzyme activity.

[5] = tested on: α-isomaltosyl-transferring enzyme from Bacillus globisporus N75; assay: Specificity to transferring acceptor; details: panose as saccharide donor, 10 units/g substrate, 3.2% (w/v), 30° C., pH 6.0, 24 hours
Summary of the method: (§3)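 Each candidate acceptor was mixed with panose donor at equal concentration, then given 10 units/g substrate of enzyme (purified, or partially purified for strain A19) at 3.2% (w/v) total saccharide. Reactions ran 24 hours at 30° C., pH 6.0, and were scored for presence or absence of transfer product.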

[6] = tested on: α-isomaltosyl-transferring enzyme from Arthrobacter globiformis A19; assay: Specificity to transferring acceptor; details: partially purified enzyme, panose as saccharide donor, 10 units/g substrate, 3.2% (w/v), 30° C., pH 6.0, 24 hours
Summary of the method: as §3

[7] = tested on: α-isomaltosyl-transferring enzyme from Bacillus globisporus C9; assay: Specificity to transferring acceptor; details: panose as saccharide donor, 10 units/g substrate, 3.2% (w/v), 30° C., pH 6.0, 24 hours
Summary of the method: as §3

[8] = tested on: α-isomaltosyl-transferring enzyme from Bacillus globisporus C11; assay: Specificity to transferring acceptor; details: panose as saccharide donor, 10 units/g substrate, 3.2% (w/v), 30° C., pH 6.0, 24 hours
Summary of the method: as §3

[9] = tested on: α-isomaltosyl-transferring enzyme from Arthrobacter ramosus S1; assay: Specificity to transferring acceptor; details: panose as saccharide donor, 10 units/g substrate, 3.2% (w/v), 30° C., pH 6.0, 24 hours
Summary of the method: as §3

[10] = tested on: α-isomaltosyl-transferring enzyme from Bacillus globisporus N75; assay: Action on saccharides (substrates, TLC); design: key: −: there was found no substrate change before and after the enzymatic reaction; +: there were found both the reduction of substrate and the formation of cyclotetrasaccharide after the enzymatic reaction; details: 2 units/g substrate, 2% (w/v) substrate, 30° C., pH 6.0, 24 hours
Summary of the method: (§4)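 Purified enzyme (partially purified for A. globiformis A19) at 2 units/g substrate acted on each saccharide at 2% (w/v), pH 6.0, 30° C., 24 h. Pre- and post-reaction mixtures ran on silica gel TLC in n-butanol/pyridine/water (6:4:1). Total sugars were stained by sulfuric acid-methanol and reducing sugars by diphenylamine-aniline.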

[11] = tested on: α-isomaltosyl-transferring enzyme from Arthrobacter globiformis A19; assay: Action on saccharides (substrates, TLC); design: key: −: there was found no substrate change before and after the enzymatic reaction; +: there were found both the reduction of substrate and the formation of cyclotetrasaccharide after the enzymatic reaction; details: partially purified enzyme, 2 units/g substrate, 2% (w/v) substrate, 30° C., pH 6.0, 24 hours
Summary of the method: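 Substrates 2% (w/v), enzyme 2 units/g substrate, pH 6.0, 30° C., 24 h. Read-out: silica TLC, n-butanol:pyridine:water 6:4:1; sulfuric acid-methanol (total sugar) and diphenylamine-aniline (reducing sugar) staining, pre- vs post-reaction.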

[12] = tested on: α-isomaltosyl-transferring enzyme from Bacillus globisporus C9; assay: Action on saccharides (substrates, TLC); design: key: −: there was found no substrate change before and after the enzymatic reaction; +: there were found both the reduction of substrate and the formation of cyclotetrasaccharide after the enzymatic reaction; details: 2 units/g substrate, 2% (w/v) substrate, 30° C., pH 6.0, 24 hours
Summary of the method: as §4

[13] = tested on: α-isomaltosyl-transferring enzyme from Bacillus globisporus C11; assay: Action on saccharides (substrates, TLC); design: key: −: there was found no substrate change before and after the enzymatic reaction; +: there were found both the reduction of substrate and the formation of cyclotetrasaccharide after the enzymatic reaction; details: 2 units/g substrate, 2% (w/v) substrate, 30° C., pH 6.0, 24 hours
Summary of the method: as §4

[14] = tested on: α-isomaltosyl-transferring enzyme from Arthrobacter ramosus S1; assay: Action on saccharides (substrates, TLC); design: key: −: there was found no substrate change before and after the enzymatic reaction; +: there were found both the reduction of substrate and the formation of cyclotetrasaccharide after the enzymatic reaction; details: 2 units/g substrate, 2% (w/v) substrate, 30° C., pH 6.0, 24 hours
Summary of the method: as §4

[15] = 1 mM metal ion, enzyme of Strain N75

Compound | Relative activity [1] | Relative activity [2] | Relative activity [3, 15] | Relative activity [4] | also measured
[Al+3] [Al^3+] | 89% | 93% | 94% | 103% | 
[Ba+2] [Ba^2+] | 90% | 97% | 102% | 102% | 
[Ca+2] [Ca^2+] | 91% | 103% | 100% | 101% | Effect on enzyme activity [1]: neither activated; Effect on enzyme activity [2]: neither activated; Effect on enzyme activity ([3]; 1 mM, enzyme of Strain N75): neither activated; Effect on enzyme activity [4]: neither activated
[Co+2] [Co^2+] | 89% | 91% | 92% | 103% | 
[Cu+2] [Cu^2+] | 56% | 2% | 15% | 57% | Effect on enzyme activity [1]: also inhibited; Effect on enzyme activity [2]: also inhibited; Effect on enzyme activity ([3]; 1 mM, enzyme of Strain N75): also inhibited; Effect on enzyme activity [4]: also inhibited
O=C(O)CN(CCN(CC(=O)O)CC(=O)O)CC(=O)O [EDTA] | 98% | 91% |  | 104% | Effect on enzyme activity [1]: nor inhibited; Effect on enzyme activity [2]: nor inhibited; Effect on enzyme activity [3]: nor inhibited; Relative activity [3]: 92%; Effect on enzyme activity [4]: nor inhibited
[Fe+2] [Fe^2+] |  | 105% |  | 96% | Relative activity ([2]; listed as Fe^3+): 75%; Relative activity ([4]; listed as Fe^3+): 105%
[Hg+2] [Hg^2+] | 2% | 0.1% | 0.5% | 1% | Effect on enzyme activity [1]: greatly inhibited; Effect on enzyme activity [2]: greatly inhibited; Effect on enzyme activity ([3]; 1 mM, enzyme of Strain N75): greatly inhibited; Effect on enzyme activity [4]: greatly inhibited
[Mg+2] [Mg^2+] | 91% | 99% | 95% |  | 
[Mn+2] [Mn^2+] | 93% |  | 101% | 106% | 
[Ni+2] [Ni^2+] | 89% | 87% | 91% | 102% | 
[Pb+2] [Pb^2+] | 74% | 85% | 69% | 89% | 
[Sr+2] [Sr^2+] | 93% | 101% | 91% | 101% | 
[Zn+2] [Zn^2+] | 83% | 78% | 75% | 88% | 
maltotriose |  |  |  |  | Product of transferring reaction, Enzyme of Strain N75 [5]: + (a saccharide-transferred product was formed in an amount of over one percent but below 10% to the total sugars); Product of transferring reaction, Enzyme of Stain A19 [6]: + (a saccharide-transferred product was formed in an amount of over one percent but below 10% to the total sugars); Product of transferring reaction, Enzyme of Strain C9 [7]: + (a saccharide-transferred product was formed in an amount of over one percent but below 10% to the total sugars); Product of transferring reaction, Enzyme of Strain C11 [8]: + (a saccharide-transferred product was formed in an amount of over one percent but below 10% to the total sugars); Product of transferring reaction, Enzyme of Strain S1 [9]: ++ (a saccharide-transferred product was formed in an amount of over 10% to the total sugars); Enzymatic action for forming cyclotetrasaccharide, Enzyme of Strain N75 [10]: −; Enzymatic action for forming cyclotetrasaccharide, Enzyme of Strain A19 [11]: −; Enzymatic action for forming cyclotetrasaccharide, Enzyme of Strain C9 [12]: −; Enzymatic action for forming cyclotetrasaccharide, Enzyme of Strain C11 [13]: −; Enzymatic action for forming cyclotetrasaccharide, Enzyme of Strain S1 [14]: −

Reference: patent US7192746B2, “α-Isomaltosyltransferase, process for producing the same and use thereof” (Kabushiki Kaisha Hayashibara Seibutsu Kagaku Kenkyujo, priority 2000, dated 2007)
